Test results: patent publication US20230212144A1, “5-MEMBERED HETEROARYL DERIVATIVE CONTAINING AT LEAST ONE N, AND PHARMACEUTICAL COMPOSITION FOR PREVENTING OR TREATING MENTAL DISORDERS, CONTAINING SAME AS ACTIVE INGREDIENT” (DAEGU-GYEONGBUK MEDICAL INNOVATION FOUNDATION, priority 2020, published 2023)
pIC50: −log10 of the molar value.

Legend:
[1] = biological target: serotonin transporter (SERT) (Homo sapiens, UniProt P31645); assay: Serotonin reuptake inhibition, [3H]-5-HT, cells transfected with 5-HT transporter cDNA; conditions: for Triple reuptake inhibition (Ratio %) SERT: compound 1 μM, relative to control without compound (100%), lower value = stronger inhibition
Chain of serotonin transporter (SERT) (P31645 whole entry, species assumed): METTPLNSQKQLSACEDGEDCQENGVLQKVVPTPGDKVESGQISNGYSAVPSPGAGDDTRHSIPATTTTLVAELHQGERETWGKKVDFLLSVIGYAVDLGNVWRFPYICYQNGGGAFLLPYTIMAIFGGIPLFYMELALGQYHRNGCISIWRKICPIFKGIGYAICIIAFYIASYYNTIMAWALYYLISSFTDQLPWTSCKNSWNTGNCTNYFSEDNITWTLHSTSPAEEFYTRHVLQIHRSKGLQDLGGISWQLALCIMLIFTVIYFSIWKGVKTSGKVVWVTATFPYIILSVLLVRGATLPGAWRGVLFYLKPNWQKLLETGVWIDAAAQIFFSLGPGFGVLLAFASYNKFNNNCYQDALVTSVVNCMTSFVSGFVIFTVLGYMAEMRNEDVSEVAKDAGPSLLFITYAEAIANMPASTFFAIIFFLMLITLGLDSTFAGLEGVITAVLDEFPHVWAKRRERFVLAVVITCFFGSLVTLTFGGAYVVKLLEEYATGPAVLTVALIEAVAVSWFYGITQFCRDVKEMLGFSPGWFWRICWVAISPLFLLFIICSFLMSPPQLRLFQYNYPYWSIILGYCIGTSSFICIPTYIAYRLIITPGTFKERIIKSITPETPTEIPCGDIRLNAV
Protocol: (§1) After removing the medium, each compound of Examples or Comparative Examples diluted to 1 μM in uptake buffer was added to a concentration of 200 μL/well and cultured at 37° C. for 15 minutes. 100 μL of uptake buffer containing 20-30 nM [3H]-DA was added and cultured at 37° C. for 5 minutes. The reaction solution was quickly removed and washed three times with 1 mL ice-cold uptake buffer. After dissolving the resultant in 1% SDS (0.5 mL), the degree of binding of radioisotope-labeled dopamine to the transporter was measured.
(§2) For norepinephrine(NE) and serotonin(5-HT), the degree of binding of radioisotope-labeled norepinephrine or serotonin to the transporter was measured in the same manner as above, except that cells transfected with NE or 5-HT transporter cDNA were used and [3H]-NE or [3H]-5-HT was used as a substrate.
(§3) In addition, when evaluating the reuptake inhibitory effect on dopamine, norepinephrine, and serotonin, the same method was performed without treating each compound of Examples or Comparative Examples as a control, the degree of binding of radioisotope-labeled dopamine, norepinephrine, and serotonin to the transporter was measured, and by using this as a reference (100%), the triple reuptake inhibitory effect was evaluated as a relative ratio (Ratio %). That is, in the control group, the binding of dopamine, norepinephrine, and serotonin to transporters is not inhibited, but when each compound of Examples is treated and thus the binding is inhibited, the Ratio % value decreases.

[2] = biological target: norepinephrine transporter (NET) (Homo sapiens, UniProt P23975); assay: Norepinephrine reuptake inhibition, [3H]-NE, cells transfected with NE transporter cDNA; conditions: for Triple reuptake inhibition (Ratio %) NET: compound 1 μM, relative to control without compound (100%), lower value = stronger inhibition
Chain of norepinephrine transporter (NET) (P23975 whole entry, species assumed): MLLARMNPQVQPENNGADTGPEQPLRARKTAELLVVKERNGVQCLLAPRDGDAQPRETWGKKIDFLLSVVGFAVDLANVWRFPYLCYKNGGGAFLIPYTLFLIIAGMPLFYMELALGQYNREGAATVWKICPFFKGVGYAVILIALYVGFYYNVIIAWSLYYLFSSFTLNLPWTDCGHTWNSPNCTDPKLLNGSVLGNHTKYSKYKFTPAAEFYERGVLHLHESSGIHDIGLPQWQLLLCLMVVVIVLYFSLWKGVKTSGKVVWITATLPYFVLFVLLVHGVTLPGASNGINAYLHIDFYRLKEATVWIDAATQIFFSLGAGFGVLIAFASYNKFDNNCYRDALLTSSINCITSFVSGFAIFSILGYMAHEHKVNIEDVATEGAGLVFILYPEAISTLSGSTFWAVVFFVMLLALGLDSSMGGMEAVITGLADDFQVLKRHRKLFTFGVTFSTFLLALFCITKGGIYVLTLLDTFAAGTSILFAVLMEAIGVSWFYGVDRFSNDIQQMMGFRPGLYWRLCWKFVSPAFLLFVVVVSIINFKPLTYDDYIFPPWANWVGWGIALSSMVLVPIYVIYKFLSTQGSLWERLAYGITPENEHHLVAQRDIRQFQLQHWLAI
Protocol: as §1, §2, §3

[3] = biological target: dopamine transporter (DAT) (Homo sapiens, UniProt Q01959); assay: Dopamine reuptake inhibition, [3H]-DA, HEK-293 cells transfected with dopamine transporter cDNA; conditions: for Triple reuptake inhibition (Ratio %) DAT: compound 1 μM, relative to control without compound (100%), lower value = stronger inhibition
Chain of dopamine transporter (DAT) (Q01959 whole entry, species assumed): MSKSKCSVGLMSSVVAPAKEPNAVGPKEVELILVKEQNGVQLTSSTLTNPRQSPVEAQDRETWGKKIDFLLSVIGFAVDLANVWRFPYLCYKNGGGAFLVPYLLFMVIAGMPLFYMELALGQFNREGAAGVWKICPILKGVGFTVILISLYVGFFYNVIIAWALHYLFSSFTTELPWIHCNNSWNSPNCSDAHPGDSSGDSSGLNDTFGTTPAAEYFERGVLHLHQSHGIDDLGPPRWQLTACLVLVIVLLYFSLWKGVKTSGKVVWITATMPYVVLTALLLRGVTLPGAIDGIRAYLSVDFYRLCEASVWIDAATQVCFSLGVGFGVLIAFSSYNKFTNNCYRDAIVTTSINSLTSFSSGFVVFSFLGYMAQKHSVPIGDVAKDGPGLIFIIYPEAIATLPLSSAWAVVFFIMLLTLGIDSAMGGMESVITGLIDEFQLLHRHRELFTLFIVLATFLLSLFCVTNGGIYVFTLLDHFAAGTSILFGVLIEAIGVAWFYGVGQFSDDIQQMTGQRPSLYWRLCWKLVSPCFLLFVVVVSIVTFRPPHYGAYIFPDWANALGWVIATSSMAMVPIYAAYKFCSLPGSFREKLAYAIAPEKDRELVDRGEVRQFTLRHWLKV
Protocol: as §1, §3

Compound	Triple reuptake inhibition (Ratio %) SERT [1] [%]	Triple reuptake inhibition (Ratio %) NET [2] [%]	Triple reuptake inhibition (Ratio %) DAT [3] [%]	pIC50 [1]	pIC50 [2]	pIC50 [3]
FC(F)(F)c1ccc2[nH]c(-c3nnc(CN4CCC(Cc5ccccc5)CC4)[nH]3)cc2c1 [Example 23, 2-(5-((4-benzylpiperidin-1-yl)methyl)-4H-1,2,4-triazol-3-yl)-5-(trifluoromethyl)-1H-indole]	125.38	90.00	46.60	–	–	–
COC(=O)c1cccc2c(-c3nnc(CN4CCC(Cc5ccccc5)CC4)[nH]3)c[nH]c12 [Example 42, methyl 3-(5-((4-benzylpiperidin-1-yl)methyl)-4H-1,2,4-triazol-3-yl)-1H-indol-7-carboxylate]	42.17	96.81	42.13	6.38	6.01	6.34
Clc1ccc(CC2CCN(Cc3nnc(-c4cc5ccccc5[nH]4)o3)CC2)cc1Cl [Example 34, 2-((4-(3,4-dichlorobenzyl)piperidin-1-yl)methyl)-5-(1H-indol-2-yl)-1,3,4-oxadiazole]	94.18	124.25	90.85	–	–	–
Cc1ccc2[nH]c(-c3nnc(CN4CCC(Cc5ccc(Cl)c(Cl)c5)CC4)[nH]3)cc2c1 [Example 30, 2-(5-((4-(3,4-dichlorobenzyl)piperidin-1-yl)methyl)-4H-1,2,4-triazol-3-yl)-5-methyl-1H-indole]	88.71	96.77	72.11	–	–	–
Oc1cc2cc(-c3nnc(CN4CCC(Cc5ccccc5)CC4)[nH]3)[nH]c2cc1O [Example 35, 2-(5-((4-benzylpiperidin-1-yl)methyl)-4H-1,2,4-triazol-3-yl)-1H-indol-5,6-diol]	27.99	56.53	35.65	6.52	6.37	6.20
CC(=O)Nc1ccc2[nH]c(-c3nnc(CN4CCC(Cc5ccccc5)CC4)[nH]3)cc2c1 [Example 66, N-(2-(5-((4-benzylpiperidin-1-yl)methyl)-4H-1,2,4-triazol-3-yl)-1H-indol-5-yl)acetamide]	–	58.77	51.59	–	–	–
CCCCOc1ccc2cc(-c3nnc(CN4CCC(Cc5ccccc5)CC4)[nH]3)[nH]c2c1 [Example 69, 2-(5-((4-benzylpiperidin-1-yl)methyl)-4H-1,2,4-triazol-3-yl)-6-butoxy-1H-indole]	–	90.43	50.33	–	–	–

The remaining lines, values ahead:

Triple reuptake inhibition (Ratio %) SERT [1] [%]	Triple reuptake inhibition (Ratio %) NET [2] [%]	Triple reuptake inhibition (Ratio %) DAT [3] [%]	pIC50 [1]	pIC50 [2]	pIC50 [3]	Compound
51.93	68.26	20.47	4.97	5.93	6.43	Fc1ccc(-c2nnc(CN3CCC(Cc4ccccc4)CC3)[nH]2)cc1 [Example 47, 4-benzyl-1-((5-(4-fluorophenyl)-4H-1,2,4-triazol-3-yl)methyl)piperidine]
74.39	5.84	7.44	5.78	6.76	7.80	Clc1ccc2[nH]c(-c3nnc(CN4CCC(Cc5ccccc5)CC4)[nH]3)cc2c1 [Example 14, 2-(5-((4-benzylpiperidin-1-yl)methyl)-4H-1,2,4-triazol-3-yl)-5-chloro-1H-indole]
52.31	50.92	48.72	–	–	–	Oc1ccc2cc(-c3nnc(CN4CCC(Cc5ccccc5)CC4)[nH]3)ccc2c1 [Example 52, 6-(5-((4-benzylpiperidin-1-yl)methyl)-4H-1,2,4-triazol-3-yl)naphthalen-2-ol]
